Assay results taken from BindingDB's records for doi:10.1021/jm070556y (St. Jude Research Hospital, 2007).

Experiments:
[1] = target: T1, Thyroid hormone receptor alpha [148-410] (Homo sapiens, UniProt P10827); assay: Fluorescence Polarization (FP) Competition Assay
T1 construct: 148-410
T1 sequence (P10827 whole entry): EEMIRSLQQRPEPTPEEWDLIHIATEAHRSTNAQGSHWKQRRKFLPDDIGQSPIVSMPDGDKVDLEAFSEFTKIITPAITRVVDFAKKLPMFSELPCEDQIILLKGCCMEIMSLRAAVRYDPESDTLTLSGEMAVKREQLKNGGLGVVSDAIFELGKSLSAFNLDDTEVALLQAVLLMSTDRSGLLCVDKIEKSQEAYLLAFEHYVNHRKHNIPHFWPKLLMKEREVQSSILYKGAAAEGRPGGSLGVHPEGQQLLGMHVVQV
Description: (§1) IC50 is the concentration of each compound required to inhibit 50% of the binding between the TR LBD and the SRC2-2 peptide using fluorescence polarization (FP) assay. The competition binding experiments were evaluated using PrismPad, and the IC50 values were obtained by fitting the data to an equation, Sigmoidal dose-response (variable slope) or four parameter logistic equation.

[2] = target: T2, Thyroid hormone receptor beta [209-461] (Homo sapiens, UniProt P10828); assay: Fluorescence Polarization (FP) Competition Assay
T2 construct: 209-461
T2 sequence (P10828 whole entry): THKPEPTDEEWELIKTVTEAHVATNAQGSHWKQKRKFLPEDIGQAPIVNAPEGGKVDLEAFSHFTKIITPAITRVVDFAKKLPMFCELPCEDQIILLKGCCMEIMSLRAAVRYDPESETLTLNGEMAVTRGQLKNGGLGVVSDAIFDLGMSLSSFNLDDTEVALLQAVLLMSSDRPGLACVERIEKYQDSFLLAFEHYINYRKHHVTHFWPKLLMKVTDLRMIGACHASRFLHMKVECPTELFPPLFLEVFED
Description: as §1

With CCCCCCc1ccc(C(=O)CCN2CCCC2)cc1 [1-(4-hexylphenyl)-3-(pyrrolidin-1-yl)propan-1-one] as the compound, how does the IC50 ([1]; pH 7.2, 22 °C) read?
The IC50 was 4.3 µM.

What about the IC50 [2] of the same compound?
The IC50 was 2.7 µM.

For C=CC(=O)OC1CCC(C(C)(C)CC)CC1 (centres undefined) [4-(2-methylbutan-2-yl)cyclohexyl prop-2-enoate], which IC50 [1] is on record?
The IC50 was 75.6 µM.

What about the IC50 [2] of the same compound?
The IC50 was 69.1 µM.

For C=CC(=O)Oc1ccc(C(C)(C)CC)cc1 [4-(2-methylbutan-2-yl)phenyl prop-2-enoate], which IC50 ([1]; pH 7.2, 22 °C) is on record?
Its IC50 is 69.6 µM.

What about the IC50 [2] of the same compound?
Its IC50 is 43.5 µM.

Which IC50 [1] does the source give for C=CC(=O)Oc1ccc(NC(=O)CCC)cc1 [4-butanamidophenyl prop-2-enoate] here?
Its IC50 is > 100 µM.

What about the IC50 [2] of the same compound?
Its IC50 is 85.9 µM.

For C=CC(=O)Oc1ccc(CCCC)cc1 [4-butylphenyl prop-2-enoate], which IC50 ([1]; pH 7.2, 22 °C) is on record?
The IC50 was 71 µM.

What about the IC50 [2] of the same compound?
The IC50 was 66 µM.

What does the source list for C=CC(=O)Oc1ccc(CCCCCCC)cc1 [4-heptylphenyl prop-2-enoate]?
IC50 [1]: 23 µM; IC50 [2]: 10.5 µM

With C=CC(=O)Oc1ccc(CCCCCC)cc1 [4-hexylphenyl prop-2-enoate] as the compound, how does the IC50 [1] read?
The IC50 was 45.2 µM.

And the IC50 [2]?
The IC50 was 18.6 µM.

What does the source list for C=CC(=O)Oc1ccc(CCCCCCCC)cc1 [4-octylphenyl prop-2-enoate]?
IC50 [1]: 21.4 µM; IC50 [2]: 11.4 µM

What does the source list for C=CC(=O)Oc1ccc(CCCCC)cc1 [4-pentylphenyl prop-2-enoate]?
IC50 ([1]; pH 7.2, 22 °C): 60.9 µM; IC50 [2]: 33.9 µM

Which IC50 [2] does the source give for C=CC(=O)Oc1ccc(CCC)cc1 [4-propylphenyl prop-2-enoate] here?
The IC50 was 100 µM.

Which results are given for C=CC(=O)Oc1ccc2c(c1)CCCC2 [5,6,7,8-tetrahydronaphthalen-2-yl prop-2-enoate]?
IC50 [1]: 85.3 µM; IC50 [2]: 69.8 µM

What does the source list for CCCCCCc1ccc(C(=O)/C=C/C(=O)O)cc1 [(2E)-4-(4-hexylphenyl)-4-oxobut-2-enoic acid]?
IC50 ([1]; pH 7.2, 22 °C): 19.2 µM; IC50 [2]: 17.7 µM

How did the IC50 [1] turn out when C=CC(=O)Oc1ccccc1C(=O)OCCCCCC [hexyl 2-(prop-2-enoyloxy)benzoate] was run?
The IC50 was 39.1 µM.

What about the IC50 [2] of the same compound?
The IC50 was 8.2 µM.

Which results are given for C=CC(=O)Oc1ccc(C(=O)OCCCCC)cc1 [pentyl 4-(prop-2-enoyloxy)benzoate]?
IC50 [1]: > 100 µM; IC50 [2]: 55.8 µM

For C=CC(=O)Oc1ccc(C(=O)OCCC)cc1 [propyl 4-(prop-2-enoyloxy)benzoate], which IC50 [1] is on record?
The IC50 was > 100 µM.

And the IC50 [2]?
The IC50 was 61 µM.
